Source: US8741932B2, “Imidazopyridine derivatives” (Piramal Enterprises Limited, priority 2009, dated 2014)

tested on: IL-6; assay: Human monocyte assay, LPS-stimulated IL-6; format: cell-based; settings: Monocyte; human monocytes, 1 μg/ml LPS, 5 hours
Protocol: The assay was designed as in the reference, Physiol.
Peripheral blood mononuclear cells (hPBMC) were harvested from human blood and suspended in RPMI 1640 culture medium containing 10% FCS, 100 U/mL penicillin and […] streptomycin (assay medium). Monocytes in the hPBMCs were counted using a Coulter Counter following which the cells were resuspended at 2×10^5 monocytes/mL. A cell suspension containing 2×10^4 monocytes was aliquoted per well of a 96-well plate. Subsequently, the hPBMCs were incubated for 4-5 hours at 37° C., 5% CO2 (During the incubation, the monocytes adhered to the bottom of 96-well plastic culture plate). Following the incubation, the non-adherent lymphocytes were washed with assay medium and the adherent monocytes re-fed with assay medium. After a 48-hour incubation period (37° C., 5% CO2), monocytes were pretreated with various concentrations of representative compounds of present invention (refer to table 6 and 7) (prepared in DMSO) or vehicle (0.5% DMSO) for 30 minutes and stimulated with 1 μg/ml LPS (Escherchia coli 0111:B4, Sigma Chemical Co., St. Louis, Mo.). The incubation was continued for 5 hours at 37° C., 5% CO2. Supernatants were harvested, assayed for IL-6 and TNF-α by ELISA as described by the manufacturer (BD Biosciences, USA). Dexamethasone (10 μM) was used as standard for this assay. […] Biological results for both IL-6 and TNFα are indicated in Table 6 and Table 7 respectively.

IC50 [µM]	Structure (SMILES)
≥ 5	CN(/N=C/c1cnc2ccc(-c3cccnc3)cn12)S(=O)(=O)c1ccc(F)cc1Br [Example 36, (E)-2-bromo-4-fluoro-N-methyl-N′-((6-(pyridin-3-yl)imidazo[1,2-a]pyridin-3-yl)methylene)benzenesulfonohydrazide]
≥ 5	CN(/N=C/c1cnc2ccc(-c3cccnc3)cn12)S(=O)(=O)c1ccc(-c2cc(C(F)(F)F)ccc2F)cc1 [Example 47, (E)-2′-Fluoro-N-methyl-N′-((6-(pyridin-3-yl)imidazo[1,2-a]pyridin-3-yl)methylene)-5′-(trifluoromethyl)biphenyl-4-sulfonohydrazide]
0.001 to 5	CN(/N=C/c1cnc2ccc(-c3cccnc3)cn12)S(=O)(=O)c1ccccc1[N+](=O)[O-] [Example 58, (E)-N-methyl-2-nitro-N′-((6-(pyridin-3-yl)imidazo[1,2-a]pyridin-3-yl)methylene)benzenesulfonohydrazide]
≥ 5	Cc1ccc(-c2ccc3ncc(/C=N/N(C)S(=O)(=O)c4ccccc4C)n3c2)cn1 [Example 131, (E)-N,2-dimethyl-N′-((6-(6-methylpyridin-3-yl)imidazo[1,2-a]pyridin-3-yl)methylene)benzenesulfonohydrazide]
≥ 5	Cc1cc2ncc(C=NN(C)S(=O)(=O)c3cc(F)ccc3C)n2cc1-c1cccnc1 [Example 118, 5-Fluoro-N, 2-dimethyl-N′-((7-methyl-6-(pyridin-3-yl)imidazo[1,2-a]pyridin-3-yl)methylene) benzenesulfonohydrazide]
≥ 5	Cc1cc(-c2cccnc2)cn2c(/C=N/N(C)S(=O)(=O)c3ccccc3C#N)cnc12 [Example 104, (E)-2-cyano-N-methyl-N′-((8-methyl-6-(pyridin-3-yl)imidazo[1,2-a]pyridin-3-yl)methylene)benzenesulfonohydrazide]
≥ 5	Cc1ccc(F)cc1S(=O)(=O)N(C)/N=C/c1cnc2ccc(-c3cncc(C(F)(F)F)c3)cn12 [Example 139, (E)-5-fluoro-N, 2-dimethyl-N′-((6-(5-(trifluoromethyl)pyridin-3-yl)imidazo[1,2-a]pyridin-3-yl)methylene) benzenesulfonohydrazide]
0.001 to 5	Cc1ccc(C)c(S(=O)(=O)N(C)/N=C/c2cnc3ccc(-c4cccnc4)cn23)c1 [Example 50, (E)-N, 2,5-trimethyl-N′-((6-(pyridin-3-yl)imidazo[1,2-a]pyridin-3-yl)methylene)benzenesulfonohydrazide]
0.001 to 5	Cc1cc(-c2cccnc2)cn2c(/C=N/N(C)S(=O)(=O)c3ccc(Cl)c([N+](=O)[O-])c3)cnc12 [Example 113, (E)-4-Chloro-N-methyl-N′-((8-methyl-6-(pyridin-3-yl)imidazo[1,2-a]pyridin-3-yl)methylene)-3-nitrobenzenesulfonohydrazide]
≥ 5	Cc1cc(S(=O)(=O)N(C)/N=C/c2cnc3ccc(-c4cccnc4)cn23)c(C)cc1Cl [Example 43, (E)-4-chloro-N, 2,5-trimethyl-N′-((6-(pyridin-3-yl)imidazo[1,2-a]pyridin-3-yl)methylene) benzenesulfonohydrazide]
≥ 5	Cc1cc(-c2cccnc2)cn2c(/C=N/N(C)S(=O)(=O)c3ccc(F)cc3Br)cnc12 [Example 114, (E)-2-Bromo-4-fluoro-N-methyl-N′-((8-methyl-6-(pyridin-3-yl)imidazo[1,2-a]pyridin-3-yl)methylene)benzenesulfonohydrazide]
0.001 to 5	COc1ccc(Cl)cc1S(=O)(=O)N(C)/N=C/c1cnc2ccc(-c3cccnc3)cn12 [Example 55, (E)-5-chloro-2-methoxy-N-methyl-N′-((6-(pyridin-3-yl)imidazo[1,2-a]pyridin-3-yl)methylene) benzenesulfonohydrazide]
0.001 to 5	CN(/N=C/c1cnc2ccc(-c3cccnc3)cn12)S(=O)(=O)c1cc(Br)ccc1Br [Example 51, (E)-2,5-dibromo-N-methyl-N′-((6-(pyridin-3-yl)imidazo[1,2-a]pyridin-3-yl)methylene) benzenesulfonohydrazide]
0.001 to 5	CN(/N=C/c1cnc2ccc(-c3cccnc3)cn12)S(=O)(=O)c1ccc(Br)cc1OC(F)(F)F [Example 56, (E)-4-bromo-N-methyl-N′-((6-(pyridin-3-yl)imidazo[1,2-a]pyridin-3-yl)methylene)-2-(trifluoromethoxy)benzenesulfonohydrazide]
0.001 to 5	CN(/N=C/c1cnc2ccc(-c3cccnc3)cn12)S(=O)(=O)c1cc(C(F)(F)F)ccc1Br [Example 57, (E)-2-bromo-N-methyl-N′-((6-(pyridin-3-yl)imidazo[1,2-a]pyridin-3-yl)methylene)-5-(trifluoromethyl)benzenesulfonohydrazide]
0.001 to 5	Cc1cc(S(=O)(=O)N(C)/N=C/c2cnc3c(C)cc(-c4cccnc4)cn23)ccc1Br [Example 107, (E)-4-Bromo-N,3-dimethyl-N′-((8-methyl-6-(pyridin-3-yl)imidazo[1,2-a]pyridin-3-yl)methylene)benzenesulfonohydrazide]
0.001 to 5	CN(/N=C/c1cnc2ccc(-c3cccnc3)cn12)S(=O)(=O)c1cccnc1 [Example 69, (E)-N-methyl-N′-((6-(pyridin-3-yl)imidazo[1,2-a]pyridin-3-yl)methylene) pyridine-3-sulfonohydrazide]
0.001 to 5	CN1CCOc2cc(S(=O)(=O)N(C)/N=C/c3cnc4ccc(-c5cccnc5)cn34)cnc21 [Example 68, (E)-N,4-dimethyl-N′-((6-(pyridin-3-yl)imidazo[1,2-a]pyridin-3-yl)methylene)-3,4-dihydro-2H-pyrido[3,2-b][1,4]oxazine-7-sulfonohydrazide]
0.001 to 5	CN(/N=C/c1cnc2ccc(-c3cccnc3)cn12)S(=O)(=O)c1cc(F)ccc1F [Example 44, (E)-2,5-difluoro-N-methyl-N′-((6-(pyridin-3-yl)imidazo[1,2-a]pyridin-3-yl)methylene) benzenesulfonohydrazide]
≥ 5	COc1ccc(-c2ccc3ncc(/C=N/N(C)S(=O)(=O)c4cc(F)ccc4C)n3c2)cn1 [Example 137, (E)-5-fluoro-N′-((6-(6-methoxypyridin-3-yl)imidazo[1,2-a]pyridin-3-yl)methylene)-N,2-dimethylbenzenesulfonohydrazide]
0.001 to 5	COc1ccc(OC)c(S(=O)(=O)N(C)/N=C/c2cnc3ccc(-c4cccnc4)cn23)c1 [Example 52, (E)-2,5-dimethoxy-N-methyl-N′-((6-(pyridin-3-yl)imidazo[1,2-a]pyridin-3-yl)methylene) benzenesulfonohydrazide]
0.001 to 5	CN(/N=C/c1cnc2ccc(-c3cccnc3)cn12)S(=O)(=O)c1ccc(N2CCOCC2)nc1 [Example 66, (E)-N-methyl-6-morpholino-N′-((6-(pyridin-3-yl)imidazo[1,2-a]pyridin-3-yl)methylene) pyridine-3-sulfonohydrazide]
0.001 to 5	COc1ccc(F)cc1S(=O)(=O)N(C)/N=C/c1cnc2ccc(-c3ccc(C)nc3)cn12 [Example 130, (E)-5-Fluoro-2-methoxy-N-methyl-N′-((6-(6-methylpyridin-3-yl)imidazo[1,2-a]pyridin-3-yl)methylene)benzenesulfonohydrazide]
0.001 to 5	CN(/N=C/c1cnc2ccc(-c3cccnc3)cn12)S(=O)(=O)c1ccc(C(F)(F)F)cc1Cl [Example 40, (E)-2-chloro-N-methyl-N′-((6-(pyridin-3-yl)imidazo[1,2-a]pyridin-3-yl)methylene)-4-(trifluoromethyl)benzenesulfonohydrazide]
0.001 to 5	Cc1ccc(S(C)(=O)=O)cc1S(=O)(=O)N(C)/N=C/c1cnc2ccc(-c3cccnc3)cn12 [Example 63, (E)-N,2-dimethyl-5-(methylsulfonyl)-N′-((6-(pyridin-3-yl)imidazo[1,2-a]pyridin-3-yl)methylene) benzenesulfonohydrazide]
0.001 to 5	Cc1ccc(-c2ccc3ncc(/C=N/N(C)S(=O)(=O)c4cc(F)ccc4C)n3c2)cn1 [Example 128, (E)-5-fluoro-N,2-dimethyl-N′-((6-(6-methylpyridin-3-yl)imidazo[1,2-a]pyridin-3-yl)methylene)benzenesulfonohydrazide]

same assay, conditions: human monocytes, 1 μg/ml LPS, 5 hours

IC50 [µM]	Structure (SMILES)
0.001 to 5	Cc1cc(-c2cccnc2)cn2c(/C=N/N(C)S(=O)(=O)c3cc(F)cc(F)c3)cnc12 [Example 101]
≥ 5	COC(=O)c1ccc(S(=O)(=O)N(C)/N=C/c2cnc3ccc(-c4cccnc4)cn23)o1 [Example 73, (E)-Methyl 5-(1-methyl-2-((6-(pyridin-3-yl)imidazo[1,2-a]pyridin-3-yl)methylene) hydrazinylsulfonyl) furan-2-carboxylate]
0.001 to 5	Cc1ccc(F)cc1S(=O)(=O)N(C)/N=C/c1cnc2ccc(-c3ccc(Cl)nc3)cn12 [Example 135, (E)-N′-((6-(6-Chloropyridins-3-yl)imidazo[1,2-a]pyridin-3-yl)methylene)-5-fluoro-N,2-dimethylbenzenesulfonohydrazide]
≥ 5	CN(/N=C/c1cnc2ccc(-c3cccnc3)cn12)C(=S)NCCN1CCOCC1 [Example 148]

Structure (SMILES)	IC50 [µM]
COc1ncc(-c2ccc3ncc(/C=N/N(C)S(=O)(=O)c4cc(F)ccc4C)n3c2)cn1 [Example 138, (E)-5-Fluoro-N-((6-(2-methoxypyrimidin-5-yl)imidazo[1,2-a]pyridine-3-yl)methylene)-N, 2-dimethylbenzenesulfonohydrazide]	≥ 5
